Km data for 1 compound are collected here from PMC4954967, “Identification of a diazinon-metabolizing glutathione S-transferase in the silkworm, Bombyx mori” (Scientific Reports, 2016).

What all share (assay): spectrophotometric GST assay at […] nm, nonlinear least-squares fit
Format in all cases: biochemical

The target of experiment [1] is T1, bmGSTu2 (Bombyx mori, UniProt A9XI30, S67A).
T1 construct: full length, 233 residues, 26,667 Da calculated; cDNA from fat body; pET-22b (EcoRI/XhoI, reverse primer without stop codon), E. coli Rosetta (DE3) pLysS
T1 sequence (A9XI30 1-233 S67A): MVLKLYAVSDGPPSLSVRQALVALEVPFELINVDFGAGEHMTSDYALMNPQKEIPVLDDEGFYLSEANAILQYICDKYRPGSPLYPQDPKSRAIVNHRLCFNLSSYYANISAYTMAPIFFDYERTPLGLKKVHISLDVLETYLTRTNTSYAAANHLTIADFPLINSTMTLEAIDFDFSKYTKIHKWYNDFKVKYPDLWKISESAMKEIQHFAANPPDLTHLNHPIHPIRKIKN
Conditions: read-out: S67A; 5 mM GSH; value (SD), n = 3.

The target of experiment [2] is T2, bmGSTu2 (Bombyx mori, UniProt A9XI30, N68A).
T2 construct: full length, 233 residues, 26,667 Da calculated; cDNA from fat body; pET-22b (EcoRI/XhoI, reverse primer without stop codon), E. coli Rosetta (DE3) pLysS
T2 sequence (A9XI30 1-233 N68A): T1 sequence (A9XI30 1-233 S67A) with A67S, N68A
Conditions: read-out: N68A; 5 mM GSH; value (SD), n = 3.

For experiment [3], the target named is T3, bmGSTu2 (Bombyx mori, UniProt A9XI30, E66A).
T3 construct: full length, 233 residues, 26,667 Da calculated; cDNA from fat body; pET-22b (EcoRI/XhoI, reverse primer without stop codon), E. coli Rosetta (DE3) pLysS
T3 sequence (A9XI30 1-233 E66A): T1 sequence (A9XI30 1-233 S67A) with E66A, A67S
Conditions: read-out: E66A; 5 mM GSH; value (SD), n = 3.

Experiment [4] has as its target T4, bmGSTu2 (Bombyx mori, UniProt A9XI30).
T4 construct: full length, 233 residues, 26,667 Da calculated; cDNA from fat body; pET-22b (EcoRI/XhoI, reverse primer without stop codon), E. coli Rosetta (DE3) pLysS
T4 sequence (A9XI30 1-233): T1 sequence (A9XI30 1-233 S67A) with A67S
Conditions: read-out: Wild-type; 5 mM GSH; value (SD), n = 3.

Experiment [5] concerns the target T5, bmGSTu2 (Bombyx mori, UniProt A9XI30, I54A).
T5 construct: full length, 233 residues, 26,667 Da calculated; cDNA from fat body; pET-22b (EcoRI/XhoI, reverse primer without stop codon), E. coli Rosetta (DE3) pLysS
T5 sequence (A9XI30 1-233 I54A): T1 sequence (A9XI30 1-233 S67A) with I54A, A67S
Conditions: read-out: I54A; 5 mM GSH; value (SD), n = 3.

Each structure is given as a SMILES string. Residue numbers refer to the chain shown, from its start.

Turning to `O=[N+]([O-])c1ccc(Cl)c([N+](=O)[O-])c1` [CDNB], the Km on bmGSTu2 [1] came out at 1600 µM; on bmGSTu2 [2], 530 µM; on bmGSTu2 [3], 910 µM; on bmGSTu2 [4] it was 270 µM; on bmGSTu2 [5], 2500 µM.
